Data reported in patent US10350213B2 (AI Therapeutics, Inc., priority 2015, dated 2019).

What was measured:
TOV-21G (Human ovarian) = test: CellTiterGlo cell viability assay; format: cell-based; conditions: TOV21G
[1] = tested on: NCI-H1666 (Human bronchioalveolar); test: CellTiterGlo cell viability assay; format: cell-based
Procedure: (§1) Briefly, test compounds (5 μl stock solution, 6×desired final well concentration) were dispensed to 384-well assay plates, TSC2−/− MEF cells (1000 cells per well in 25 μL of media) were added to the plates and the plates were incubated for 72 h (3 days) at 37° C. under an atmosphere of 5% CO2 in a humidified incubator for 3 days. Cell viability was determined with CellTiter-Glo® luminescence assay (Promega) per the manufacturer's instructions. Viability was expressed as a percentage of untreated control cells.
(§2) 35 cell lines were identified as sensitive to apilimod-induced cytotoxicity in this assay. The apilimod-sensitive cells included cells derived from several different cancers including non-Hodgkin's lymphoma, Hodgkin's lymphoma, colorectal cancer, and lung cancer. The most sensitive of those tested were non-Hodgkin's Lymphoma (NHL) cell lines. […] The only NHL subtype not sensitive in this assay was follicular.

[2] = tested on: HT (Human Diffuse Large B Cell Lymphoma -GCB); test: CellTiterGlo cell viability assay; format: cell-based; conditions: Human DLBCL-GCB
Procedure: as §1, §2

[3] = tested on: OCI-Ly19 (Human Diffuse Large B Cell Lymphoma -GCB); test: CellTiterGlo cell viability assay; format: cell-based; conditions: Human DLBCL-GCB
Procedure: as §1, §2

[4] = tested on: Raji (Human Burkitt's lymphoma); test: CellTiterGlo cell viability assay; format: cell-based
Procedure: as §1, §2

[5] = tested on: MOLT-4 (Human T-cell leukemia); test: CellTiterGlo cell viability assay; format: cell-based
Procedure: as §1, §2

[6] = tested on: HCT-15 (Human Colorectal); test: CellTiterGlo cell viability assay; format: cell-based
Procedure: as §1, §2

[7] = tested on: COLO-320DM (Human Colorectal); test: CellTiterGlo cell viability assay; format: cell-based
Procedure: as §1, §2

[8] = tested on: SUDHL-10 (Human Diffuse Large B Cell Lymphoma -GCB); test: CellTiterGlo cell viability assay; format: cell-based; conditions: SU-DHL10, Human DLBCL-GCB
Procedure: as §1, §2

[9] = tested on: HD-MyZ (Human Hodgkin's lymphoma); test: CellTiterGlo cell viability assay; format: cell-based
Procedure: as §1, §2

[10] = tested on: NCI-H1650 (Human bronchioalveolar); test: CellTiterGlo cell viability assay; format: cell-based
Procedure: as §1, §2

[11] = tested on: KARPAS-422 (Human Diffuse Large B Cell Lymphoma -GCB); test: CellTiterGlo cell viability assay; format: cell-based; conditions: Human DLBCL-GCB
Procedure: as §1, §2

[12] = tested on: SW1573 (Human bronchioalveolar); test: CellTiterGlo cell viability assay; format: cell-based
Procedure: as §1, §2

[13] = tested on: JeKo-1 (Human Mantle Cell Lymphoma); test: CellTiterGlo cell viability assay; format: cell-based
Procedure: as §1, §2

[14] = tested on: H1734 (Human lung carcinoma); test: CellTiterGlo cell viability assay; format: cell-based; conditions: NCI-H1734
Procedure: as §1, §2

[15] = tested on: A172 (Human neuroblastoma); test: CellTiterGlo cell viability assay; format: cell-based; conditions: A 172
Procedure: as §1, §2

[16] = tested on: GRANTA-519 (Human Mantle Cell Lymphoma); test: CellTiterGlo cell viability assay; format: cell-based
Procedure: as §1, §2

HT-29 (Human Colorectal) = test: CellTiterGlo cell viability assay; format: cell-based
Procedure: as §1, §2

[17] = tested on: HDLM-2 (Human Hodgkin's lymphoma); test: CellTiterGlo cell viability assay; format: cell-based
Procedure: as §1, §2

[18] = tested on: ST486 (Human Burkitt's lymphoma); test: CellTiterGlo cell viability assay; format: cell-based
Procedure: as §1, §2

[19] = tested on: L428 (Human Hodgkin's lymphoma); test: CellTiterGlo cell viability assay; format: cell-based; conditions: L-428
Procedure: as §1, §2

[20] = tested on: U937 (Human histiocytic lymphoma); test: CellTiterGlo cell viability assay; format: cell-based; conditions: U-937
Procedure: as §1, §2

[21] = tested on: SW1116 (Human colorectal cancer); test: CellTiterGlo cell viability assay; format: cell-based; conditions: SW 1116
Procedure: as §1, §2

[22] = tested on: SUDHL-6 (Human Diffuse Large B Cell Lymphoma -GCB); test: CellTiterGlo cell viability assay; format: cell-based; conditions: SU-DHL-6, Human DLBCL-GCB
Procedure: as §1, §2

[23] = tested on: HH (Human T-cell lymphoma); test: CellTiterGlo cell viability assay; format: cell-based
Procedure: as §1, §2

[24] = tested on: L540 (Human Hodgkin's lymphoma); test: CellTiterGlo cell viability assay; format: cell-based; conditions: L-540
Procedure: as §1, §2

[25] = tested on: KG-1 (Human acute myelogenous leukemia); test: CellTiterGlo cell viability assay; format: cell-based
Procedure: as §1, §2

SW480 (Human Colorectal) = test: CellTiterGlo cell viability assay; format: cell-based
Procedure: as §1, §2

[26] = tested on: DB (Human B-cell lymphoma); test: CellTiterGlo cell viability assay; format: cell-based; conditions: Human DLBCL-GCB
Procedure: as §1, §2

[27] = tested on: Namalwa (Human Burkitt's lymphoma); test: CellTiterGlo cell viability assay; format: cell-based
Procedure: as §1, §2

[28] = tested on: RKO (Human colorectal cancer); test: CellTiterGlo cell viability assay; format: cell-based
Procedure: as §1, §2

[29] = tested on: GA-10 (Human Burkitt's lymphoma); test: CellTiterGlo cell viability assay; format: cell-based
Procedure: as §1, §2

Vac14 = target: T1, Vac14 (Homo sapiens, UniProt Q08AM6); test: Chemical capture mass spectrometry (CCMS); format: binding; conditions: apilimod as competitor ligand
T1 construct: whole cell lysate prepared from human neuroglioma cells; endogenous in cells; host or cells: human neuroglioma cells (whole cell lysate)
Procedure: (§3) This work was performed at Caprotec Bioanalytics GmbH, Berlin Germany. See Michaelis et al., J. Med. Chem., 55 3934-44 (2012) and references cited therein. […] Capture conditions were optimized in whole cell lysate, e.g. minimization of non-specific interactions of the proteins with capture compounds, concentration of reagents and proteins to obtain maximum binding of proteins and capture compounds, etc. […] These specific binders were further subjected to stringent data analysis criteria to determine specificity after unbiased data evaluation. Specific protein binders were ranked according to their fold change (FC) values in the capture experiments.

PIKfyve = target: T2, PIKfyve (Homo sapiens, UniProt Q9Y2I7); test: Chemical capture mass spectrometry (CCMS); format: binding; conditions: apilimod as competitor ligand
T2 construct: whole cell lysate prepared from human neuroglioma cells; endogenous in cells; host or cells: human neuroglioma cells (whole cell lysate)
Procedure: as §3

[30] = Homo sapiens, 72 h, 3-day CellTiterGlo assay

T1 sequence (Q08AM6 whole entry): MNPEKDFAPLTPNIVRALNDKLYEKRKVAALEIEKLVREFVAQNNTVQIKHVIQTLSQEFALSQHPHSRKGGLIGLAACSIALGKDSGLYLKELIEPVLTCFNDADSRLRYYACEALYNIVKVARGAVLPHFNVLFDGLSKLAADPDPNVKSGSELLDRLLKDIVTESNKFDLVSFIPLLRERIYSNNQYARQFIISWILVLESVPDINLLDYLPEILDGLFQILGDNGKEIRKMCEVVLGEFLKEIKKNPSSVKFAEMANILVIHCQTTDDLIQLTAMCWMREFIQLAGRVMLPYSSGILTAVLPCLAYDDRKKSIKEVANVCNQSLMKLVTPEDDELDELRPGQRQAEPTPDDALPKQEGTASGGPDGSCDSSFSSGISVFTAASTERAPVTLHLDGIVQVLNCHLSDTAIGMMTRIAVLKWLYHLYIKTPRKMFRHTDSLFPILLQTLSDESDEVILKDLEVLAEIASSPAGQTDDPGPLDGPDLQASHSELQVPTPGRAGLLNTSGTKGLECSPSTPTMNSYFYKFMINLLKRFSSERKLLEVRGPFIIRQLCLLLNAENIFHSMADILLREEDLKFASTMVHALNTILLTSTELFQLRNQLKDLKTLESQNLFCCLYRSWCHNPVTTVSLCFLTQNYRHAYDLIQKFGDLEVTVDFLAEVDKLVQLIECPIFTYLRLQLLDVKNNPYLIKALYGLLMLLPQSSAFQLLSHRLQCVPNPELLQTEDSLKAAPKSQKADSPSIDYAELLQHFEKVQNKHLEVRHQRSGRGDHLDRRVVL
T1 sequence (Q9Y2I7 2-2098 partner): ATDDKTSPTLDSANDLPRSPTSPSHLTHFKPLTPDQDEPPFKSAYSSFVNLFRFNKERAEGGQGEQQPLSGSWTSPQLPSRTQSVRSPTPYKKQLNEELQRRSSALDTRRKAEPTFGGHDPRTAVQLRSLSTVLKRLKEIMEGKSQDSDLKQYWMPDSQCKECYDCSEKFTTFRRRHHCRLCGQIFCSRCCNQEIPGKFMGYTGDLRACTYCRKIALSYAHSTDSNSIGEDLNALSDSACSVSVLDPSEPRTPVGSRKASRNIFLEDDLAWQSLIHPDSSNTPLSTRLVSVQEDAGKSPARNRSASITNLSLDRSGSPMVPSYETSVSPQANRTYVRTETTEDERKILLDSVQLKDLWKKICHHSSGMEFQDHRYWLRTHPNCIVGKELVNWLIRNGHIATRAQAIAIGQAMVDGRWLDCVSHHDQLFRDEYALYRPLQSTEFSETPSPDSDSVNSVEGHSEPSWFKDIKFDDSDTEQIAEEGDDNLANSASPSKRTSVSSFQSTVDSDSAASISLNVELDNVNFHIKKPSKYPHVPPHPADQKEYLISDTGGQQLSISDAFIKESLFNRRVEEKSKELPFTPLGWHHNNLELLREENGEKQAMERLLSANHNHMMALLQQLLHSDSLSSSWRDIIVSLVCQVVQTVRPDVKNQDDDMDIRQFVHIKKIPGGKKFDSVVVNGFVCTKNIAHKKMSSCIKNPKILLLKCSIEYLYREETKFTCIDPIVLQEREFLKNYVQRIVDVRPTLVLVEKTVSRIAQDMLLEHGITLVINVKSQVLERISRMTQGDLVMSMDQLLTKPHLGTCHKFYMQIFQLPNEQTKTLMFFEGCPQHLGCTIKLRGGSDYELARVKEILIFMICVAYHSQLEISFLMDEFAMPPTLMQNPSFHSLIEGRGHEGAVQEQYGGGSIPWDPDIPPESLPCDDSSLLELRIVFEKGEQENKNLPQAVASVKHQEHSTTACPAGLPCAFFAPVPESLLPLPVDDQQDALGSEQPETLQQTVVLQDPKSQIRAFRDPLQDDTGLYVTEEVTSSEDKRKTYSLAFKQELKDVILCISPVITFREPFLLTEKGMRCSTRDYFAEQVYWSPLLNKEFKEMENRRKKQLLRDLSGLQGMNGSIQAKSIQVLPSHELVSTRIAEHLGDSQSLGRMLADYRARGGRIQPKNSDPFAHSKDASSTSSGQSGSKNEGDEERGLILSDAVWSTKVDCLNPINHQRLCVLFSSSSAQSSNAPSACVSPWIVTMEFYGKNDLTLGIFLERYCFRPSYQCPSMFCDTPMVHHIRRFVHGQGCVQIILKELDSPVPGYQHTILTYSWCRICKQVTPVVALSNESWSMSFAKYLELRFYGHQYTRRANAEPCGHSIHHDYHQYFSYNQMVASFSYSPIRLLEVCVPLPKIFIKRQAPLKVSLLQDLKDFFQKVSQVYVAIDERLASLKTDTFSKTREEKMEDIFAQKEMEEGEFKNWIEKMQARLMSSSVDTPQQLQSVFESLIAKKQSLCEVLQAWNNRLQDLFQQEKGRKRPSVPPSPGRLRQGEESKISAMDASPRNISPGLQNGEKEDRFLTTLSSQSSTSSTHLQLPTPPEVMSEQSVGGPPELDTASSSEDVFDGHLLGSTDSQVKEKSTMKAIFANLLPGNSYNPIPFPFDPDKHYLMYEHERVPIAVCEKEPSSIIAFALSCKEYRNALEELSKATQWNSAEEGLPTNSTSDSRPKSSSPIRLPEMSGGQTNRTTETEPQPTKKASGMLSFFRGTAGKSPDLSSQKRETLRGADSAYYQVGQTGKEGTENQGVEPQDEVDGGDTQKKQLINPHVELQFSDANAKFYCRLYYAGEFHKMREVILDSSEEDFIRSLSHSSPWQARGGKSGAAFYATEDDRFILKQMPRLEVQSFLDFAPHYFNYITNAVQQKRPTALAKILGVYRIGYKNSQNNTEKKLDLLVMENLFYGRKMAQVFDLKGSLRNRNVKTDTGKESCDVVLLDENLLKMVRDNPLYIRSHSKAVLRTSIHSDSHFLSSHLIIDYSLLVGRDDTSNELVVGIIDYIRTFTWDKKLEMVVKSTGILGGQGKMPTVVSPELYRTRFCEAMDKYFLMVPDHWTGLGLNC
T2 sequence (Q9Y2I7 whole entry): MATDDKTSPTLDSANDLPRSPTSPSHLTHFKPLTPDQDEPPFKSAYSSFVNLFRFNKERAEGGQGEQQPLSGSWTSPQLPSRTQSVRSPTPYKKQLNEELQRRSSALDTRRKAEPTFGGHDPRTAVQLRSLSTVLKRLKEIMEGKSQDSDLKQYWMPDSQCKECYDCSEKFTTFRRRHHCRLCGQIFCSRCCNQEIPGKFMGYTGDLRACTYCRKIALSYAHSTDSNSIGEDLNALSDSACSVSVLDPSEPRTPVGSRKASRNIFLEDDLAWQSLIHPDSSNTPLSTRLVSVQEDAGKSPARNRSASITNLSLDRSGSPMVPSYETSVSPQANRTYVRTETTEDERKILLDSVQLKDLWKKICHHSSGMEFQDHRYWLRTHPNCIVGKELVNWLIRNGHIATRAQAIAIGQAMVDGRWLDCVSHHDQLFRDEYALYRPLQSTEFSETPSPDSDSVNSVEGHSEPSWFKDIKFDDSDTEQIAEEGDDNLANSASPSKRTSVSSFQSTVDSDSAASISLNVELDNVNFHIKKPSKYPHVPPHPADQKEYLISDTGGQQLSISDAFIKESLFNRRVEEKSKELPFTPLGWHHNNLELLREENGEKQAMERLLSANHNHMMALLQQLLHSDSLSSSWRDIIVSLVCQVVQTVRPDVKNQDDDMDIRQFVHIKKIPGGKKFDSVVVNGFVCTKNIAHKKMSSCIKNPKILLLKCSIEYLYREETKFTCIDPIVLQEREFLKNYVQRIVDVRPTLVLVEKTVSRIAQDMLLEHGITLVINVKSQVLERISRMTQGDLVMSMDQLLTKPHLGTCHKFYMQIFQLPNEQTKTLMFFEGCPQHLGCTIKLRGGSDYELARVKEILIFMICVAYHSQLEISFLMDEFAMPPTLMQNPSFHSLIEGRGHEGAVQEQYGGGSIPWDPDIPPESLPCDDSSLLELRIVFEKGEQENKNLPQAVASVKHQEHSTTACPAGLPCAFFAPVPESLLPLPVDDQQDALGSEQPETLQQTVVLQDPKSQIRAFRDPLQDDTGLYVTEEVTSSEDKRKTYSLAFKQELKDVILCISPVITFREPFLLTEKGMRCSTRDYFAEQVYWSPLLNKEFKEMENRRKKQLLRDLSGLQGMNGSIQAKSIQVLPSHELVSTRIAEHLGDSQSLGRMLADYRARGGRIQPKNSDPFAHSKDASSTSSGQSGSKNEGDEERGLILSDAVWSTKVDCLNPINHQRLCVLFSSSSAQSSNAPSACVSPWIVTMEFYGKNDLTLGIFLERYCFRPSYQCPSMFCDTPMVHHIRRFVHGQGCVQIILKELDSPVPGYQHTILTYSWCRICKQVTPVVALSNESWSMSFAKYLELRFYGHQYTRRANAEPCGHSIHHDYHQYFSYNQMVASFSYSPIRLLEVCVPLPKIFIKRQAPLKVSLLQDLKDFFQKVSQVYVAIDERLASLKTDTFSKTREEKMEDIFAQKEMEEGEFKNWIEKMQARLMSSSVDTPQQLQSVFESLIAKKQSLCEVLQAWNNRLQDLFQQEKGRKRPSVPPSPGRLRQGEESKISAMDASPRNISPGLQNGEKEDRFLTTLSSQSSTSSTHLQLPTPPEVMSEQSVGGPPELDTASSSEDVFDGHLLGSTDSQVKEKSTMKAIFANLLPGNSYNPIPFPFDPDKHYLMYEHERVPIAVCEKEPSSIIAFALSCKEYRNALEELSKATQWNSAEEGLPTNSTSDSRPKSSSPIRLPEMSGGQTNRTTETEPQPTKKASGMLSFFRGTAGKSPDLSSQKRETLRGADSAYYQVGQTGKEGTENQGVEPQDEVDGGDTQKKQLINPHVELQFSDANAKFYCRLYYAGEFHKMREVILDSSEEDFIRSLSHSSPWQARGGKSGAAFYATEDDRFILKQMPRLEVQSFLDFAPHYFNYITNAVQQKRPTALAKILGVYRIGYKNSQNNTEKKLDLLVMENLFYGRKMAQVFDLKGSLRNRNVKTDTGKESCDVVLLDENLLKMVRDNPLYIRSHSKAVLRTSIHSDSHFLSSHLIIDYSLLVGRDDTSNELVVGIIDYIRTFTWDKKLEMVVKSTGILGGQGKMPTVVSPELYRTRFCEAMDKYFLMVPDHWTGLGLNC

Cc1cccc(/C=N/Nc2cc(N3CCOCC3)nc(OCCc3ccccn3)n2)c1 [apilimod]
IC50 (TOV-21G (Human ovarian)): 7000 nM | IC50 [1]: 20000 nM | IC50 [2]: 642 nM | IC50 [3]: 380 nM | IC50 [4]: > 10000 nM | IC50 [5]: 3300 nM | IC50 [6]: 200 nM | IC50 [7]: 2060 nM | IC50 [8]: 20 nM | IC50 [9]: > 1000 nM | IC50 [10]: > 20000 nM | IC50 [11]: > 10000 nM | IC50 [12]: > 20000 nM | IC50 [13, 30]: < 100 nM | IC50 ([13]; Human Mantle Cell Lymphoma): 70 nM | IC50 [14]: 1500 nM | IC50 [15]: 2000 nM | IC50 [16]: > 10000 nM | IC50 (HT-29 (Human Colorectal)): > 10000 nM | IC50 [17]: > 1000 nM | IC50 [18, 30]: < 100 nM | IC50 ([18]; Human Burkitt's lymphoma): 25 nM | IC50 [19]: 10000 nM | IC50 [20]: 106 nM | IC50 [21]: 1500 nM | IC50 [22]: 80 nM | IC50 [23]: 3300 nM | IC50 [24]: > 1000 nM | IC50 [25]: > 2500 nM | IC50 (SW480 (Human Colorectal)): 90 nM | IC50 [26]: 150 nM | IC50 [27]: 600 nM | IC50 [28]: > 5000 nM | IC50 [29]: 382 nM | log2 (FC) (Vac14; capture compound 0.1 μM): 6.2 | log2 (FC) (Vac14; capture compound 0.5 μM): 5.6 | log2 (FC) (Vac14; capture compound 1.0 μM): Inf. | log2 (FC) (Vac14; capture compound 2.0 μM): 3.9 | log2 (FC) (PIKfyve; capture compound 0.1 μM, human neuroglioma whole cell lysate): 6.3 | log2 (FC) (PIKfyve; capture compound 0.5 μM): 6.2 | log2 (FC) (PIKfyve; capture compound 1.0 μM): 4.1 | log2 (FC) (PIKfyve; capture compound 2.0 μM): 4.3
